Assays:
Assay type in all cases: in vivo
Veronica persica [1] = assay: Post-emergence herbicidal efficacy at 80 g/ha, VERPE; conditions: rated visually after about 3 weeks vs untreated controls, 100% = plants have died
Source text: (§1) Unwanted plants/weeds: • ABUTH: Abutilon theophrasti • ALOMY: Alopecurus myosuroides • AMARE: Amaranthus retroflexus • DIGSA: Digitaria sanguinalis • ECHCG: Echinochloa crus-galli • KCHSC: Kochia scoparia • LOLRI: Lolium rigidum • MATIN: Matricaria inodora • POAAN: Poa annua • POLCO: Polygonum convolvulus • SETVI: Setaria viridis • STEME: Stellaria media • VERPE: Veronica persica • VIOTR: Viola tricolor A. Post-Emergence Herbicidal Efficacy at 320 g/ha
(§2) Seeds of monocotyledonous and dicotyledonous weeds and crop plants were placed in sandy loam in plastic or organic planting pots, covered with soil and cultivated in a greenhouse under controlled growth conditions. 2 to 3 weeks after sowing, the test plants were treated at the one-leaf stage. The compounds of the invention, formulated in the form of wettable powders (WP) or as emulsion concentrates (EC), were then sprayed onto the green parts of the plants as aqueous suspension or emulsion with addition of 0.5% additive at a water application rate of 600 l/ha (converted). After the test plants had been kept in the greenhouse under optimum growth conditions for about 3 weeks, the activity of the preparations was rated visually in comparison to untreated controls. For example, 100% activity=the plants have died, 0% activity=like control plants.
(§3) Tables B1 to B11 below show the effects of selected compounds of the general formula (I) according to Table 1 on various harmful plants and an application rate corresponding to 80 g/ha, which were obtained by the experimental procedure mentioned above.

Stellaria media [2] = assay: Pre-emergence herbicide efficacy at 320 g/ha, STEME; conditions: scored visually after about 3 weeks vs untreated controls, 100% = plants have died
Source text: as §1
(§4) Seeds of mono- and dicotyledonous weed plants were placed in plastic pots in sandy loam soil (doubly sown with one species each of mono- or dicotyledonous weed plants per pot) and covered with soil. The compounds of the invention, formulated in the form of wettable powders (WP) or as emulsion concentrates (EC), were then applied to the surface of the covering soil as aqueous suspension or emulsion with addition of 0.5% additive at a water application rate of 600 litres per hectare (converted). After the treatment, the pots were placed in a greenhouse and kept under good growth conditions for the test plants. After about 3 weeks, the efficacy of the preparations was scored visually in comparison with untreated controls as percentages.
(§5) For example, 100% activity=the plants have died, 0% activity=like control plants.
(§6) Tables C1 to C12 below show the effects of selected compounds of the general formula (I) according to Table 1 on various harmful plants and at an application rate corresponding to 320 g/ha, which were obtained by the trial procedure specified above.

Digitaria sanguinalis = assay: Pre-emergence herbicide efficacy at 320 g/ha, DIGSA; conditions: scored visually after about 3 weeks vs untreated controls, 100% = plants have died
Source text: as §1, §4, §5, §6

Abutilon theophrasti [3] = assay: Pre-emergence herbicide efficacy at 320 g/ha, ABUTH; conditions: scored visually after about 3 weeks vs untreated controls, 100% = plants have died
Source text: as §1, §4, §5, §6

Poa annua = assay: Pre-emergence herbicide efficacy at 320 g/ha, POAAN; conditions: scored visually after about 3 weeks vs untreated controls, 100% = plants have died
Source text: as §1, §4, §5, §6

Setaria viridis = assay: Pre-emergence herbicide efficacy at 320 g/ha, SETVI; conditions: scored visually after about 3 weeks vs untreated controls, 100% = plants have died
Source text: as §1, §4, §5, §6

Veronica persica [4] = assay: Post-emergence herbicidal efficacy at 320 g/ha, VERPE; conditions: rated visually after about 3 weeks vs untreated controls, 100% = plants have died
Source text: as §1
(§7) Seeds of mono- and dicotyledonous weed plants were placed in plastic pots in sandy loam soil (doubly sown with in each case one species of mono- or dicotyledonous weed plants per pot), covered with soil and cultivated in a greenhouse under controlled growth conditions. 2 to 3 weeks after sowing, the test plants were treated at the one-leaf stage. The compounds of the invention, formulated in the form of wettable powders (WP) or as emulsion concentrates (EC), were applied to the green parts of the plants as aqueous suspension or emulsion with addition of 0.5% additive at a water application rate equivalent to 600 litres per hectare. After the test plants had been kept in the greenhouse under optimum growth conditions for about 3 weeks, the activity of the preparations was rated visually in comparison to untreated controls.
as §5
(§8) Tables A1 to A10 below show the effects of selected compounds of the general formula (I) according to Table 1 on various harmful plants and at an application rate corresponding to 320 g/ha, which were obtained by the trial procedure specified above.

Amaranthus retroflexus [5] = assay: Pre-emergence herbicide efficacy at 320 g/ha, AMARE; conditions: scored visually after about 3 weeks vs untreated controls, 100% = plants have died
Source text: as §1, §4, §5, §6

Kochia scoparia [6] = assay: Post-emergence herbicidal efficacy at 320 g/ha, KCHSC; conditions: rated visually after about 3 weeks vs untreated controls, 100% = plants have died
Source text: as §1, §7, §5, §8

Amaranthus retroflexus [7] = assay: Post-emergence herbicidal efficacy at 320 g/ha, AMARE; conditions: rated visually after about 3 weeks vs untreated controls, 100% = plants have died
Source text: as §1, §7, §5, §8

Abutilon theophrasti [8] = assay: Post-emergence herbicidal efficacy at 320 g/ha, ABUTH; conditions: rated visually after about 3 weeks vs untreated controls, 100% = plants have died
Source text: as §1, §7, §5, §8

Kochia scoparia [9] = assay: Pre-emergence herbicide efficacy at 320 g/ha, KCHSC; conditions: scored visually after about 3 weeks vs untreated controls, 100% = plants have died
Source text: as §1, §4, §5, §6

Kochia scoparia [10] = assay: Post-emergence herbicidal efficacy at 80 g/ha, KCHSC; conditions: rated visually after about 3 weeks vs untreated controls, 100% = plants have died
Source text: as §1, §2, §3

Amaranthus retroflexus [11] = assay: Post-emergence herbicidal efficacy at 80 g/ha, AMARE; conditions: rated visually after about 3 weeks vs untreated controls, 100% = plants have died
Source text: as §1, §2, §3

Veronica persica [12] = assay: Pre-emergence herbicide efficacy at 320 g/ha, VERPE; conditions: scored visually after about 3 weeks vs untreated controls, 100% = plants have died
Source text: as §1, §4, §5, §6

Stellaria media [13] = assay: Post-emergence herbicidal efficacy at 320 g/ha, STEME; conditions: rated visually after about 3 weeks vs untreated controls, 100% = plants have died
Source text: as §1, §7, §5, §8

Echinochloa crus-galli = assay: Post-emergence herbicidal efficacy at 320 g/ha, ECHCG; conditions: rated visually after about 3 weeks vs untreated controls, 100% = plants have died
Source text: as §1, §7, §5, §8

| Compound | Post-emergence efficacy at 80 g/ha against VERPE in % (Veronica persica [1]) [%] | Pre-emergence efficacy at 320 g/ha against STEME in % (Stellaria media [2]) [%] | Pre-emergence efficacy at 320 g/ha against DIGSA in % (Digitaria sanguinalis) [%] | Pre-emergence efficacy at 320 g/ha against ABUTH in % (Abutilon theophrasti [3]) [%] | Pre-emergence efficacy at 320 g/ha against POAAN in % (Poa annua) [%] | Pre-emergence efficacy at 320 g/ha against SETVI in % (Setaria viridis) [%] | Post-emergence efficacy at 320 g/ha against VERPE in % (Veronica persica [4]) [%] | Pre-emergence efficacy at 320 g/ha against AMARE in % (Amaranthus retroflexus [5]) [%] | Post-emergence efficacy at 320 g/ha against KCHSC in % (Kochia scoparia [6]) [%] | Post-emergence efficacy at 320 g/ha against AMARE in % (Amaranthus retroflexus [7]) [%] | Post-emergence efficacy at 320 g/ha against ABUTH in % (Abutilon theophrasti [8]) [%] | Pre-emergence efficacy at 320 g/ha against KCHSC in % (Kochia scoparia [9]) [%] | Post-emergence efficacy at 80 g/ha against KCHSC in % (Kochia scoparia [10]) [%] | Post-emergence efficacy at 80 g/ha against AMARE in % (Amaranthus retroflexus [11]) [%] | Pre-emergence efficacy at 320 g/ha against VERPE in % (Veronica persica [12]) [%] | Post-emergence efficacy at 320 g/ha against STEME in % (Stellaria media [13]) [%] | Post-emergence efficacy at 320 g/ha against ECHCG in % (Echinochloa crus-galli) [%] |
| --- | --- | --- | --- | --- | --- | --- | --- | --- | --- | --- | --- | --- | --- | --- | --- | --- | --- |
| Fc1cnc(Nc2ccccc2-n2cc(C(F)(F)F)cn2)nc1 [Example 1-77] | 80 | – | – | – | – | – | – | – | – | – | – | – | – | – | – | – | – |
| COc1cnc(Nc2cccc(F)c2-c2cc(C(F)F)no2)nc1 [Example 1-37] | – | 100 | 100 | 90 | 100 | 100 | 90 | 100 | 90 | 90 | 100 | 90 | – | – | – | – | – |
| O=C(CCCC(F)(F)F)c1cccnc1Nc1ncc(Cl)cn1 [Example 2-8] | 90 | – | – | – | – | – | – | – | – | – | – | – | 90 | 100 | – | – | – |
| Fc1cccc(Nc2ncccn2)c1-c1cc(C(F)F)no1 [Example 1-35] | – | 100 | 90 | 100 | 100 | 90 | 100 | 100 | 100 | 100 | 100 | 100 | – | – | 90 | 100 | – |
| Cc1cccc(Nc2ncc(Cl)cn2)c1-n1cc(C(F)(F)F)cn1 [Example 1-49] | – | – | 90 | – | 100 | 100 | 90 | 100 | – | 90 | 90 | – | – | – | 100 | 90 | 90 |
| FC(F)c1cc(-c2c(Cl)cccc2Nc2ccc(Cl)cn2)on1 [Example 1-74] | 80 | – | – | – | – | – | – | – | – | – | – | – | – | 80 | – | – | – |
| N#Cc1c(Cl)ccc(Nc2ncc(Cl)cn2)c1-n1cc(C(F)(F)F)cn1 [Example 1-43] | – | – | – | – | – | – | – | – | 100 | 100 | – | – | – | 90 | – | – | – |

Source: US20250311727A1, “SUBSTITUTED 2-AMINOAZINES AND SALTS THEREOF, AND USE THEREOF AS HERBICIDAL ACTIVE SUBSTANCES” (BAYER AKTIENGESELLSCHAFT, priority 2022, published 2025)
